These results are taken from patent publication US20260250290A1 (BRISTOL-MYERS SQUIBB COMPANY, priority 2023, published 2026).

SMILES strings stand for the structures.

The experiment deals with T1, full length SGK1 (Homo sapiens, UniProt O00141).
T1 construct: 125 μM full length SGK1 (Life Technologies Part #PR7358A); purchased Life Technologies PR7358A
T1 sequence (O00141 1-431): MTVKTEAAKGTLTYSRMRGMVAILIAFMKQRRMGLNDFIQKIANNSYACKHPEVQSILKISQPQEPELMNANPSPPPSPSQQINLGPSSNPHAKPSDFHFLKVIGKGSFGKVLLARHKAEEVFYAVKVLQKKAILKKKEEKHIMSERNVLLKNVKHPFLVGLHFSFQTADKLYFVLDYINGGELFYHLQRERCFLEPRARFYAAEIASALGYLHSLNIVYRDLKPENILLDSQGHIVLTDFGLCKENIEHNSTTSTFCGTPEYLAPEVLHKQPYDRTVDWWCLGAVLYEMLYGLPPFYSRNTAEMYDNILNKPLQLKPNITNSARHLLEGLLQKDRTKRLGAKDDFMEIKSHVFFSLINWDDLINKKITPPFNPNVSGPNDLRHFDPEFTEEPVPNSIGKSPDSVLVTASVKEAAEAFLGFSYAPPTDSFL
Put plainly: SGK1 inhibition Assay A (Caliper LabChip electrophoretic separation of fluorescent peptide substrate and phosphorylated product). The settings on record: Assay A; 20 μM ATP, 40 min incubation; read-out: SGK1 IC50. Format: biochemical.

As usually defined, the IC50 is the concentration at which inhibition is half-maximal. Regarding `CC(=O)N1CC=C(c2cc(N3CCC[C@@H](NC(=O)c4sc(C(F)F)cc4C4CCNCC4)C3)c3c(N)ncnn23)C1` [Example 393E, (R)—N-(1-(7-(1-acetyl-2,5-dihydro-1H-pyrrol-3-yl)-4-aminopyrrolo[2,1-f][1,2,4]triazin-5-yl)piperidin-3-yl)-5-(difluoromethyl)-3-(piperidin-4-yl)thiophene-2-carboxamide], the half-maximal inhibitory concentration (IC50) came out at 0.162 µM. Next, `CC(=O)N1CC=C(c2cc(N3CCC[C@@H](NC(=O)c4sc(C(F)F)cc4C4CCN(C)CC4)C3)c3c(N)ncnn23)C1` [Example 393]: 0.197 µM; `CC(=O)N1CC=C(c2cc(N3CCC[C@@H](NC(=O)c4sc(C(F)F)cc4C4CCN(C(C)C)CC4)C3)c3c(N)ncnn23)C1` [Example 394, (R)-N-(1-(7-(1-acetyl-2,5-dihydro-1H-pyrrol-3-yl)-4-aminopyrrolo[2,1-f][1,2,4]triazin-5-yl)piperidin-3-yl)-5-(difluoromethyl)-3-(1-isopropylpiperidin-4-yl)thiophene-2-]: 0.249 µM; `N#Cc1ccc(-c2cc(N3CCC[C@@H](NC(=O)c4sc(C(F)F)cc4C4CCNCC4)C3)c3c(N)ncnn23)cn1` [Example 395, (R)-N-(1-(4-amino-7-(6-cyanopyridin-3-yl)pyrrolo[2,1-f][1,2,4]triazin-5-yl)piperidin-3-yl)-5-(difluoromethyl)-3-(piperidin-4-yl)thiophene-2-carboxamide]: 0.21 µM. Next, `CN1CCC(c2cc(C(F)F)sc2C(=O)N[C@@H]2CCCN(c3cc(-c4ccc(C#N)nc4)n4ncnc(N)c34)C2)CC1` [Example 396, (R)-N-(1-(4-amino-7-(6-cyanopyridin-3-yl)pyrrolo[2,1-f][1,2,4]triazin-5-yl)piperidin-3-yl)-5-(difluoromethyl)-3-(1-methylpiperidin-4-yl)thiophene-2-carboxamide]: 0.146 µM. Next, `CC(C)N1CCC(c2cc(C(F)F)sc2C(=O)N[C@@H]2CCCN(c3cc(-c4ccc(C#N)nc4)n4ncnc(N)c34)C2)CC1` [Example 397, (R)-N-(1-(4-amino-7-(6-cyanopyridin-3-yl)pyrrolo[2,1-f][1,2,4]triazin-5-yl)piperidin-3-yl)-5-(difluoromethyl)-3-(1-isopropylpiperidin-4-yl)thiophene-2-carboxamide]: 0.134 µM; `CC(=O)N1CC=C(c2cc(N3CCC[C@@H](NC(=O)c4sc(C(F)F)cc4C4CCN(C)C4)C3)c3c(N)ncnn23)C1` (stereo partly drawn) [Example 398, N—((R)-1-(7-(1-acetyl-2,5-dihydro-1H-pyrrol-3-yl)-4-aminopyrrolo[2,1-f][1,2,4]triazin-5-yl)piperidin-3-yl)-5-(difluoromethyl)-3-(1-methylpyrrolidin-3-yl)thiophene-2-carboxamide]: 0.246 µM; `CC(=O)N1CC=C(c2cc(N3CCC[C@@H](NC(=O)c4sc(C(F)F)cc4C4CCN(C(C)C)C4)C3)c3c(N)ncnn23)C1` (stereo partly drawn) [Example 399, N-((R)-1-(7-(1-acetyl-2,5-dihydro-1H-pyrrol-3-yl)-4-aminopyrrolo[2,1-f][1,2,4]triazin-5-yl)piperidin-3-yl)-5-(difluoromethyl)-3-(1-isopropylpyrrolidin-3-yl)thiophene-2-carboxamide]: 0.31 µM. For `N#Cc1ccc(-c2cc(N3CCC[C@@H](NC(=O)c4sc(C(F)F)cc4C4CCNC4)C3)c3c(N)ncnn23)cn1` (stereo partly drawn) [Example 400, N-((R)-1-(4-amino-7-(6-cyanopyridin-3-yl)pyrrolo[2,1-f][1,2,4]triazin-5-yl)piperidin-3-yl)-5-(difluoromethyl)-3-(pyrrolidin-3-yl)thiophene-2-carboxamide], the IC50 worked out at 0.299 µM. Next, `CN1CCC(c2cc(C(F)F)sc2C(=O)N[C@@H]2CCCN(c3cc(-c4ccc(C#N)nc4)n4ncnc(N)c34)C2)C1` (stereo partly drawn) [Example 401, N-((R)-1-(4-amino-7-(6-cyanopyridin-3-yl)pyrrolo [2,1-f][1,2,4]triazin-5-yl)piperidin-3-yl)-5-(difluoromethyl)-3-(1-methylpyrrolidin-3-yl)thiophene-2-carboxamide]: 0.25 µM; `CN1CCC(c2cc(C(F)F)sc2C(=O)N[C@@H]2CCCN(c3cc(-c4ccc(C(N)=O)nc4)n4ncnc(N)c34)C2)C1` (stereo partly drawn) [Example 402, 5-(4-amino-5-((3R)-3-(5-(difluoromethyl)-3-(1-methylpyrrolidin-3-yl)thiophene-2-carboxamido)piperidin-1-yl)pyrrolo[2,1-f][1,2,4]triazin-7-yl)picolinamide]: 0.219 µM. Next, `CC(C)N1CCC(c2cc(C(F)F)sc2C(=O)N[C@@H]2CCCN(c3cc(-c4ccc(C#N)nc4)n4ncnc(N)c34)C2)C1` (stereo partly drawn) [Example 403, N-((R)-1-(4-amino-7-(6-cyanopyridin-3-yl)pyrrolo[2,1-f][1,2,4]triazin-5-yl)piperidin-3-yl)-5-(difluoromethyl)-3-(1-isopropylpyrrolidin-3-yl)thiophene-2-carboxamide]: 0.229 µM; `CC(C)N1CCC(c2cc(C(F)F)sc2C(=O)N[C@@H]2CCCN(c3cc(-c4ccc(C(N)=O)nc4)n4ncnc(N)c34)C2)C1` (stereo partly drawn) [Example 404, 5-(4-amino-5-((3R)-3-(5-(difluoromethyl)-3-(1-isopropylpyrrolidin-3-yl)thiophene-2-carboxamido)piperidin-1-yl)pyrrolo[2,1-f][1,2,4]triazin-7-yl)picolinamide]: 0.254 µM.

With `CC(=O)N1CC=C(c2cc(N3CCC[C@@H](NC(=O)c4sc(C(F)F)cc4C4CCNC4)C3)c3c(N)ncnn23)C1` (stereo partly drawn) [Example 405, N-((R)-1-(7-(1-acetyl-2,5-dihydro-1H-pyrrol-3-yl)-4-aminopyrrolo[2,1-f][1,2,4]triazin-5-yl)piperidin-3-yl)-5-(difluoromethyl)-3-(pyrrolidin-3-yl)thiophene-2-carboxamide], the IC50 stood at 0.304 µM. Regarding `CC(=O)N1CC=C(c2cc(N3CCC[C@@H](NC(=O)c4sc(C(F)F)cc4C4CCN(C)C4)C3)c3c(N)ncnn23)C1` (stereo partly drawn) [Example 406, N-((R)-1-(7-(1-acetyl-2,5-dihydro-1H-pyrrol-3-yl)-4-aminopyrrolo[2,1-f][1,2,4]triazin-5-yl)piperidin-3-yl)-5-(difluoromethyl)-3-(1-methylpyrrolidin-3-yl)thiophene-2-carboxamide], the half-inhibitory concentration (IC50) was 0.309 µM. With `CC(=O)N1CC=C(c2cc(N3CCC[C@@H](NC(=O)c4sc(C(F)F)cc4C4CCN(C(C)C)C4)C3)c3c(N)ncnn23)C1` (stereo partly drawn) [Example 407, N-((R)-1-(7-(1-acetyl-2,5-dihydro-1H-pyrrol-3-yl)-4-aminopyrrolo[2,1-f][1,2,4]triazin-5-yl)piperidin-3-yl)-5-(difluoromethyl)-3-(1-isopropylpyrrolidin-3-yl)thiophene-2-carboxamide], the concentration for half-maximal inhibition (IC50) was found to be 0.322 µM. Next, `CCN(CC)CCOc1cc(C(F)F)sc1C(=O)N[C@@H]1CCCN(c2cc(C3=CCN(C(=O)OC)C3)n3ncnc(N)c23)C1` [Example 408, methyl (R)-3-(4-amino-5-(3-(3-(2-(diethylamino)ethoxy)-5-(difluoromethyl)thiophene-2-carboxamido)piperidin-1-yl)pyrrolo[2,1-f][1,2,4]triazin-7-yl)-2,5-dihydro-1H-pyrrole-1-carboxylate]: 0.022 µM; `CCN(CC)CCOc1cc(C(F)F)sc1C(=O)N[C@@H]1CCCN(c2cc(C3=CCN(C(C)=O)C3)n3ncnc(N)c23)C1` [Example 409, (R)-N-(1-(7-(1-acetyl-2,5-dihydro-1H-pyrrol-3-yl)-4-aminopyrrolo[2,1-f][1,2,4]triazin-5-yl)piperidin-3-yl)-3-(2-(diethylamino)ethoxy)-5-(difluoromethyl) thiophene-2-carboxamide]: 0.024 µM; `CCN(CC)CCOc1cc(C(F)F)sc1C(=O)N[C@@H]1CCCN(c2cc(-c3cncnc3)n3ncnc(N)c23)C1` [Example 410, (R)-N-(1-(4-amino-7-(pyrimidin-5-yl)pyrrolo[2,1-f] [1,2,4]triazin-5-yl)piperidin-3-yl)-3-(2-(diethylamino)ethoxy)-5-(difluoromethyl) thiophene-2-carboxamide]: 0.198 µM. Next, `COC(=O)N1CC=C(c2cc(N3CCC[C@@H](NC(=O)c4sc(C(F)F)cc4OC4CCN(C(C)=O)CC4)C3)c3c(N)ncnn23)C1` [Example 411, methyl (R)-3-(5-(3-(3-((1-acetylpiperidin-4-yl)oxy)-5-(difluoromethyl)thiophene-2-carboxamido)piperidin-1-yl)-4-aminopyrrolo[2,1-f][1,2,4]triazin-7-yl)-2,5-dihydro-1H-pyrrole-1-carboxylate]: 0.005 µM; `CC(=O)N1CCC(Oc2cc(C(F)F)sc2C(=O)N[C@@H]2CCCN(c3cc(C4=CCN(C(C)=O)C4)n4ncnc(N)c34)C2)CC1` [Example 412, (R)-N-(1-(7-(1-acetyl-2,5-dihydro-1H-pyrrol-3-yl)-4-aminopyrrolo[2,1-f][1,2,4]triazin-5-yl)piperidin-3-yl)-3-((1-acetylpiperidin-4-yl)oxy)-5-(difluoromethyl)thiophene-2-carboxamide]: 0.05 µM. Next, `CC(=O)N1CCC(Oc2cc(C(F)F)sc2C(=O)N[C@@H]2CCCN(c3cc(-c4cncnc4)n4ncnc(N)c34)C2)CC1` [Example 413, (R)-3-((1-acetylpiperidin-4-yl)oxy)-N-(1-(4-amino-7-(pyrimidin-5-yl)pyrrolo[2,1-f][1,2,4]triazin-5-yl)piperidin-3-yl)-5-(difluoromethyl)thiophene-2-carboxamide]: 0.113 µM.
